# Laboratory results published in patent publication US20040192774A1, “Method for improving the well-being of poultry by in-ovo injection of carnitine” (priority 2001, published 2004).
# Key:
# [1] = tested on: Cobb-500 strain of broiler chicken; test: Metabolic chamber studies: subnormal oxygen supply, ascites model; type: in vivo; settings: for HCT (hematocrit, packed cell volume) / AS (ascites score): day 14, 17% oxygen
# Excerpt: In the context of the present invention, the ascites score is understood as an empirical score from 0 to 3 indicating no to severe myocardial degeneration, based on the histopathological changes. Pathological changes in cardiac traits such as right ventricle weight and ascites heart ratio, defined as the ratio of right ventricle weight to total ventricle weight, are also taken into account.
# A score of zero indicated minimal fat deposition and myofiber size variation, whereas a score of three indicated marked myocardial degeneration, highly abnormal cardiac traits and arteritis. A score of two was intermediate to the two extremes.
# (§1) Approximately 4000 embryonated, freshly laid eggs of Cobb-500 strain of broiler chicken (obtained from Cobb Vantress of Siloam Springs, Ark.) were pre-selected as to uniformity of weight and originated from breeder hens at approximately 35-45 weeks of the production cycle. The eggs were kept in a climatised incubation chamber at 37° C. up to day 18 post-laying. Eggs were then injected with either 100 μl sterile physiological saline or 150 μg carnitine comprised in 100 μl sterile physiological saline on day 18 of incubation. Incubation was then carried on until hatch. Carnitine was commercially available L-Carnitine (trade name: Carnifeed, Lonza Inc., 100% L-Carnitine). The eggs were injected with the automatic inovoject-system of Embrex, Inc. (maximum capacity: 50,000 eggs per hour). The system punches a tiny hole into the egg shell and then lowers a needle through the hole which delivers the therapeutic product to the embryo. Needles are automatically sanitized after each injection and provide for 100% inoculation.
# (§2) To assess the effect of the carnitine injection carried out according to Example 1, birds were selected at random from the birds originating from the Example 1 and raised up to 70 days. The birds were either placed in a commercial production environment (12 floor pens/trt; 50 birds/pen) or in metabolic chambers with normal feed but subnormal, controlled oxygen supply. The latter is an accepted testing model for trigger the ascites condition in predispositioned birds. Approximately 2400 chicks were allocated to floor pen groups as described below. Three hundred birds were selected at random and incubated in the metabolic chambers. Standard feeds were applied (similar to diets fed to commercial broiler chickens); and nutrient specifications are shown below. Feeds were mixed according to accepted mixing procedures such that treatment diets only differed in presence or absence of carnitine.
# Chicks were reared in air-tight chambers at subnormal oxygen supply simulating high altitude conditions. Feed and drinking water were provided for ad-libitum consumption. Chamber temperature was maintained at 30° C. the first 5 days of age and at 27.8° C. thereafter. Chambers were checked twice daily for bird mortality. Compressed dried air (7% relative humidity (rH), 17% oxygen) was delivered to chicks in the chamber via polyethylene tubes. It was necessary to provide low rH-air to the chick chamber in order to hold the chamber at rH below 75%. The concentration of oxygen and carbon dioxide in air exiting each bird's chamber was monitored every 15-25 minutes using Ametek oxygen (accuracy±0.2%) and carbon dioxide (accuracy±0.3%) analyzers, respectively.
# Apart from body weight and body temperature at hatching (day 0; BW0, BT0), ascites score (AS) and hematocrit (packed cell volume; HCT) of chicks were determined at day 14. Blood (2 ml) was taken from the birds via venipuncture after which they were euthanized using CO2 and necropsies were performed.
# Hearts were weighed whole and then dissected for determination of ascites heart ratio. Heart sections were taken and fixed in 10% buffered neutral formalin for histopathologic examinantion. The results of heart dissection and histopathological analysis were summarized in the ascites score.
# [2] = tested on: Cobb-500 strain of broiler chicken; test: Floor pen studies: broiler performance after day 18 in-ovo carnitine injection (or carnitine-supplemented feed); type: in vivo; settings: for FCR 0-49 (feed conversion ratio): 0 to 49 days post-hatch; for FCR 0-70 (feed conversion ratio): 0 to 70 days post-hatch; for FCR 49-70 (feed conversion ratio): 49 to 70 days post-hatch
# Protocol: as §1, §2
# Data were analyzed using the General Linear Model procedure of SAS (SAS, 1985). When a significant F statistic was noted by ANOVA, treatment means were compared using least square analysis variance.
# Data are only given where probability levels were p≦0.10. In general, carnitine effects, though not always being statistically significant at p<0.05, were consistent across trials.
# Number of days post-hatch are indicated, e.g., BW21: Hatched chicks were grown for 21 days prior to measurement.
# Mortality (M) is given as main effect mean in %. Number of days post-hatch are indicated, e.g., M21-49: percentage of death birds in the period of 21 to 49 days post-hatch.
# Main effect means for feed conversion ratio (FCR, in grams of feed per gram of gain) is given. Number of days post-hatch are indicated, e.g., FCR 0-49: FCR in the period 0 to 49 days post-hatch that chicks were grown. For further control, the effect of in-ovo injection was compared to that of feeding the same diet, except that this diet was supplemented with carnitine at 200 ppm. Feed conversion was improved by carnitine treatment, either fed or injected. The results from both methods of carnitine administration were consistent.
# [3] = injection of carnitine versus not injected
# [4] = fed: diet supplemented with carnitine at 200 ppm
smiles,measurement,setting,value
"C[N+](C)(C)CC(O)CC(=O)[O-] (stereo not drawn) [carnitine, 3-hydroxy-4-N-trimethylaminobutyric acid]","HCT (hematocrit, packed cell volume)",[1]; fed: L-carnitine at 200 ppm (coated on silica particles) via the feed,30.25 Percent packed cells
same,AS (ascites score),"[1]; fed: L-carnitine at 200 ppm (coated on silica particles) via the feed, scale from 0-3",0.303
same,BT 0 (body temperature at hatching),"[1]; in-ovo injected day 18, day 0",101.73 ° F.
same,BW 0 (body weight at hatching),"[1]; in-ovo injected day 18, day 0",38.82 g
same,"HCT (hematocrit, packed cell volume)",[1]; in-ovo injected day 18,30.04 Percent packed cells
same,AS (ascites score),"[1]; in-ovo injected day 18, scale from 0-3 (no, slight, moderate, severe ascites lesions)",0.277
same,effect on ascites score (in words),[1]; [3],decreased
same,effect on hematocrit (in words),[1]; [3],decreased
same,increase of body weight at hatching,"[1]; single injection of carnitine into incubating eggs, versus control",0.5 g
same,"BW 21 (body weight, main effect mean)","[2]; 150 μg carnitine in-ovo injected on day 18 of incubation, 21 days post-hatch",719.9 g
same,"BW 49 (body weight, main effect mean)","[2]; 150 μg carnitine in-ovo injected on day 18 of incubation, 49 days post-hatch",2940.7 g
same,"BW 70 (body weight, main effect mean)","[2]; 150 μg carnitine in-ovo injected on day 18 of incubation, 70 days post-hatch",4168.1 g
same,effect on feed conversion (in words),"[2]; carnitine treatment, either fed or injected",improved
same,FCR 0-49 (feed conversion ratio),[2]; [4],1.817 grams of feed per gram of gain
same,FCR 0-70 (feed conversion ratio),[2]; [4],2.331 grams of feed per gram of gain
same,FCR 49-70 (feed conversion ratio),[2]; [4],3.535 grams of feed per gram of gain
same,FCR 0-49 (feed conversion ratio),[2]; in-ovo injected day 18,1.839 grams of feed per gram of gain
same,FCR 0-70 (feed conversion ratio),[2]; in-ovo injected day 18,2.369 grams of feed per gram of gain
same,FCR 49-70 (feed conversion ratio),[2]; in-ovo injected day 18,3.648 grams of feed per gram of gain
same,"WG 0-21 (weight gain, main effect mean)","[2]; in-ovo injected day 18, period 0-21 days post-hatch",681.7 g
same,"M 0-70 (mortality, main effect mean)","[2]; in-ovo injected day 18, period 0 to 70 days post-hatch",21.92%
same,"WG 21-49 (weight gain, main effect mean)","[2]; in-ovo injected day 18, period 21-49 days post-hatch",2220.8 g
same,"M 21-49 (mortality, main effect mean)","[2]; in-ovo injected day 18, period 21 to 49 days post-hatch",4.66%
same,"WG 49-70 (weight gain, main effect mean)","[2]; in-ovo injected day 18, period 49-70 days post-hatch",1227.4 g
same,"M 49-70 (mortality, main effect mean)","[2]; in-ovo injected day 18, period 49 to 70 days post-hatch",14.33%
same,weight per 100 chicks started,"[2]; in-ovo injected eggs, end of the 70 days period post-hatch",32.54 kg
same,"mortality rate, cumulative","[2]; in-ovo injection, highest age",~20%
